Measured values reported in patent publication US20260217708A1, “FUSED BENZAZEPINE DERIVATIVES FOR USE IN THE TREATMENT OF CANCER AND EPILEPSY” (UCB BIOPHARMA SRL, priority 2023, published 2026).

Key:
system Xc^− [1] = biological target: T1, system Xc^− (Homo sapiens, UniProt Q9UPY5); assay: Cystine-induced glutamate release assay; format: cell-based; parameters: endogenous in cells; host or cells: H4 cells; settings: H4 cells, sodium-free HEPES buffer, 50 μM L-Cystine, 2 hours, Amplex Red glutamate readout; read-out: pIC50 Cystine-induced glutamate release assay (converted)
T1 sequence (Q9UPY5 1-501): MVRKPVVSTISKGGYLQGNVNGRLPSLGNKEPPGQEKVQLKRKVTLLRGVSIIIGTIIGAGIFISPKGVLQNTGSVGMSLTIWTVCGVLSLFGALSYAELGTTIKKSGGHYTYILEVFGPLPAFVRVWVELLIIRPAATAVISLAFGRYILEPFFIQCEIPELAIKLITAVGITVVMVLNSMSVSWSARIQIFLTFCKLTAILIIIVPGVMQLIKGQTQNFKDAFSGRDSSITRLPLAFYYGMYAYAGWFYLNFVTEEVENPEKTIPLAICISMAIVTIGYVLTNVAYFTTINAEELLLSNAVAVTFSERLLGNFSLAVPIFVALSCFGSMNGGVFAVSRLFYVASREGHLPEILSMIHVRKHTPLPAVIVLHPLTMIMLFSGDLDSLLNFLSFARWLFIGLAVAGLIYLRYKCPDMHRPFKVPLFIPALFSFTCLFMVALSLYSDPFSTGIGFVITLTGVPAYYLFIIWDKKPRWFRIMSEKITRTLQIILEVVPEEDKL
T1 sequence (P08195 1-529 partner): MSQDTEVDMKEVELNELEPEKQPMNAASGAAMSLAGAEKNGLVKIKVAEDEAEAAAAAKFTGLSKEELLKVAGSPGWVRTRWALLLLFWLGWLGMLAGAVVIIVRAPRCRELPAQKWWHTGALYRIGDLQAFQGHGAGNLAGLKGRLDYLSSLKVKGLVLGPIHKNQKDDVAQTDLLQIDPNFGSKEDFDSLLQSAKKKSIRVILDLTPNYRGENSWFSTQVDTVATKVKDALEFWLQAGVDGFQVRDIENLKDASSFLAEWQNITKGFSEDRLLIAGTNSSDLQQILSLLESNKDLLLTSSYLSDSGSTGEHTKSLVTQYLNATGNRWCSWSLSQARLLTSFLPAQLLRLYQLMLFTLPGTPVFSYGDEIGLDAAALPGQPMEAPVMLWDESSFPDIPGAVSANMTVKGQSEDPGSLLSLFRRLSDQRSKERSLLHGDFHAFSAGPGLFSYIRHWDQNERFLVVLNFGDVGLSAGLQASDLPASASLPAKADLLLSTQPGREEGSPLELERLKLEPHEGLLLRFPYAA
In short: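 H4 cells in sodium-free HEPES buffer (pH 7.4), 2 days after plating; glutamate release induced with 50 μM L-cystine plus compound (1% DMSO), 2 h at 37 °C. Supernatant glutamate measured by Amplex Red fluorescence; IC50/pIC50 derived between 1% DMSO and 50 μM erastin controls.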

system Xc^− [2] = biological target: T1, system Xc^−; assay: [^14C]L-Cystine uptake assay; format: cell-based; parameters: endogenous in cells; host or cells: H4 cells; settings: H4 cells, sodium-free HEPES buffer, 0.5 μM L-[14C]Cystine and 4.5 μM L-Cystine, 1 hour at 37° C.; read-out: pIC50 [^14C] L-Cystine uptake assay (converted)
In short: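 H4 cells at 5×10^4 cells/well in sodium-free HEPES buffer were preincubated 15 min with compounds (1% DMSO). Uptake of 0.5 μM [14C]L-cystine plus 4.5 μM unlabelled L-cystine ran 1 hour at 37° C on scintillating plates. IC50 was set between 1% DMSO and 50 μM Erastin controls and expressed as pIC50.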

IC50 (system Xc^− [1]) | IC50 (system Xc^− [2]) | Structure (SMILES)
< 15.8 nM | < 15.8 nM | CC1C(=O)N(CC(=O)Nc2ccc(C(F)F)cc2)c2cc(N3CC(F)C3)nc(F)c2-c2cccnc21 (single isomer, unassigned) [#274, N-[4-(difluoromethyl)phenyl]-2-[3-fluoro-5-(3-fluoroazetidin-1-yl)-10-methyl-9-oxo-4,8,12-triazatricyclo[9.4.0.0^2,7]pentadeca-1(15),2,4,6,11,13-hexaen-8-yl]acetamide]
< 15.8 nM | < 15.8 nM | CC1C(=O)N(CC(=O)Nc2ccc(C(F)F)cc2)c2cc(N3CC(C)(O)C3)nc(F)c2-c2cccnc21 (single isomer, unassigned) [#275, N-[4-(difluoromethyl)phenyl]-2-[3-fluoro-5-(3-hydroxy-3-methyl-azetidin-1-yl)-10-methyl-9-oxo-4,8,12-triazatricyclo[9.4.0.0^2,7]pentadeca-1(15),2,4,6,11,13-hexaen-8-yl]acetamide]
< 15.8 nM | < 15.8 nM | C[C@@H]1C(=O)N(CC(=O)Nc2ccc(C(F)F)cc2)c2cc(N3CC[C@@H](F)C3)nc(F)c2-c2cccnc21 (single isomer, unassigned) [#276, N-[4-(difluoromethyl)phenyl]-2-[3-fluoro-5-[3-fluoropyrrolidin-1-yl]-10-methyl-9-oxo-4,8,12-triazatricyclo[9.4.0.0^2,7]pentadeca-1(15),2,4,6,11,13-hexaen-8-yl]acetamide]
15.8 to 39.8 nM | 15.8 to 39.8 nM | C[C@@H]1C(=O)N(CC(=O)Nc2ccc(C(F)F)cc2)c2cc(N3CC[C@@H](F)C3)nc(F)c2-c2cccnc21 (single isomer, unassigned) [#277, N-[4-(difluoromethyl)phenyl]-2-[3-fluoro-5-[3-fluoropyrrolidin-1-yl]-10-methyl-9-oxo-4,8,12-triazatricyclo[9.4.0.0^2,7]pentadeca-1(15),2,4,6,11,13-hexaen-8-yl]acetamide]
39.8 to 100 nM | 15.8 to 39.8 nM | CC1C(=O)N(CC(=O)Nc2ccc(C(F)F)cc2)c2cc(N3CCC(F)(F)C3)nc(F)c2-c2cccnc21 (single isomer, unassigned) [#278, N-[4-(difluoromethyl)phenyl]-2-[5-(3,3-difluoropyrrolidin-1-yl)-3-fluoro-10-methyl-9-oxo-4,8,12-triazatricyclo[9.4.0.0^2,7]pentadeca-1(15),2,4,6,11,13-hexaen-8-yl]acetamide]
< 15.8 nM | < 15.8 nM | C[C@H]1C(=O)N(CC(=O)Nc2ccc(C(F)F)cc2)c2cc(N3CC[C@H](O)C3)nc(F)c2-c2cccnc21 (single isomer, unassigned) [#279, N-[4-(difluoromethyl)phenyl]-2-[3-fluoro-5-[3-hydroxypyrrolidin-1-yl]-10-methyl-9-oxo-4,8,12-triazatricyclo[9.4.0.0^2,7]pentadeca-1(15),2,4,6,11,13-hexaen-8-yl]acetamide]
< 15.8 nM | < 15.8 nM | CC1C(=O)N(CC(=O)Nc2ccc(C(F)F)cc2)c2cc(N3CC(F)(F)C3)nc(F)c2-c2cccnc21 (single isomer, unassigned) [#280, 2-[5-(3,3-difluoroazetidin-1-yl)-3-fluoro-10-methyl-9-oxo-4,8,12-triazatricyclo[9.4.0.0^2,7]pentadeca-1(11),2(7),3,5,12,14-hexaen-8-yl]-N-[4-(difluoromethyl)phenyl]acetamide]
< 15.8 nM | 15.8 to 39.8 nM | CC1C(=O)N(CC(=O)Nc2ccc(C(F)F)cc2)c2cc(N3CC4(CC4)C3)nc(F)c2-c2cccnc21 (single isomer, unassigned) [#283, 2-[5-(5-azaspiro[2.3]hexan-5-yl)-3-fluoro-10-methyl-9-oxo-4,8,12-triazatricyclo[9.4.0.0^2,7]pentadeca-1(15),2,4,6,11,13-hexaen-8-yl]-N-[4-(difluoromethyl)phenyl]acetamide]

Further lines, the compound ahead of its results:

Structure (SMILES) | IC50 (system Xc^− [1]) | IC50 (system Xc^− [2])
CC1C(=O)N(CC(=O)Nc2ccc(Cl)c(F)c2)c2cc(N3CC4(CC4)C3)nc(F)c2-c2cccnc21 (single isomer, unassigned) [#267, 2-[5-(5-azaspiro[2.3]hexan-5-yl)-3-fluoro-10-methyl-9-oxo-4,8,12-triazatricyclo[9.4.0.0^2,7]pentadeca-1(15),2,4,6,11,13-hexaen-8-yl]-N-(4-chloro-3-fluoro-phenyl)acetamide] | 15.8 to 39.8 nM | 39.8 to 100 nM
CC1C(=O)N(CC(=O)Nc2ccc(Cl)c(F)c2)c2cc(N3CC(F)(F)C3)nc(F)c2-c2cccnc21 (single isomer, unassigned) [#268, N-(4-chloro-3-fluoro-phenyl)-2-[5-(3,3-difluoroazetidin-1-yl)-3-fluoro-10-methyl-9-oxo-4,8,12-triazatricyclo[9.4.0.0^2,7]pentadeca-1(15),2,4,6,11,13-hexaen-8-yl]acetamide] | < 15.8 nM | < 15.8 nM
CC1C(=O)N(CC(=O)Nc2ccc(Cl)c(F)c2)c2cc(N3[C@@H]4CCC[C@H]3C4)nc(F)c2-c2cccnc21 (single isomer, unassigned) [#269, 2-[5-(6-azabicyclo[3.1.1]heptan-6-yl)-3-fluoro-10-methyl-9-oxo-4,8,12-triazatricyclo[9.4.0.0^2,7]pentadeca-1(11),2(7),3,5,12,14-hexaen-8-yl]-N-(4-chloro-3-fluoro-phenyl)acetamide] | 39.8 to 100 nM | 39.8 to 100 nM
CC1C(=O)N(CC(=O)Nc2ccc(Cl)c(F)c2)c2cc(N3CC4(C3)CC4(F)F)nc(F)c2-c2cccnc21 (single isomer, unassigned) [#270, N-(4-chloro-3-fluoro-phenyl)-2-[5-(2,2-difluoro-5-azaspiro[2.3]hexan-5-yl)-3-fluoro-10-methyl-9-oxo-4,8,12-triazatricyclo[9.4.0.0^2,7]pentadeca-1(15),2,4,6,11,13-hexaen-8-yl]acetamide] | 39.8 to 100 nM | 39.8 to 100 nM
CC1C(=O)N(CC(=O)Nc2ccc(C(F)F)cc2)c2cc(N3CC4(C3)CC(F)(F)C4)nc(F)c2-c2cccnc21 (single isomer, unassigned) [#281, 2-[5-(6,6-difluoro-2-azaspiro[3.3]heptan-2-yl)-3-fluoro-10-methyl-9-oxo-4,8,12-triazatricyclo[9.4.0.0^2,7]pentadeca-1(15),2,4,6,11,13-hexaen-8-yl]-N-[4-(difluoromethyl)phenyl]acetamide] | 39.8 to 100 nM | 39.8 to 100 nM
CC1C(=O)N(CC(=O)Nc2ccc(C(F)F)cc2)c2cc(N3CC4(CCOC4)C3)nc(F)c2-c2cccnc21 (single isomer, unassigned) [#282, N-[4-(difluoromethyl)phenyl]-2-[3-fluoro-10-methyl-5-(6-oxa-2-azaspiro[3.4]octan-2-yl)-9-oxo-4,8,12-triazatricyclo[9.4.0.0^2,7]pentadeca-1(15),2,4,6,11,13-hexaen-8-yl]acetamide] | 15.8 to 39.8 nM | < 15.8 nM
CC1C(=O)N(CC(=O)Nc2ccc(C(F)F)cc2)c2cc(N3CC4(COC4)C3)nc(F)c2-c2cccnc21 (single isomer, unassigned) [#284, N-[4-(difluoromethyl)phenyl]-2-[3-fluoro-10-methyl-5-(2-oxa-6-azaspiro[3.3]heptan-6-yl)-9-oxo-4,8,12-triazatricyclo[9.4.0.0^2,7]pentadeca-1(15),2,4,6,11,13-hexaen-8-yl]acetamide] | < 15.8 nM | < 15.8 nM
CC1C(=O)N(CC(=O)Nc2ccc(C(F)F)cc2)c2cc(N3CC4(C3)CC4(F)F)nc(F)c2-c2cccnc21 (single isomer, unassigned) [#286, 2-[5-(2,2-difluoro-5-azaspiro[2.3]hexan-5-yl)-3-fluoro-10-methyl-9-oxo-4,8,12-triazatricyclo[9.4.0.0^2,7]pentadeca-1(15),2,4,6,11,13-hexaen-8-yl]-N-[4-(difluoromethyl)phenyl]acetamide] | < 15.8 nM | < 15.8 nM
